# Data: ChEMBL document CHEMBL1124336, “5-Isoquinolinesulfonamide derivatives. 2. Synthesis and vasodilatory activity of N-(2-aminoethyl)-5-isoquinolinesulfonamide derivatives” (1989)
# Key:
# Canis familiaris [1] = assay: Increasing effect on vertebral blood flow in anesthetized dogs compared to the effect of trapidil; format: functional, Canis lupus familiaris
# Canis familiaris [2] = assay: Increasing effect on femoral blood flow in anesthetized dogs compared to the effect of trapidil; format: functional, Canis lupus familiaris, Artery
# Canis familiaris [3] = assay: Compound was tested for its hemodynamic effect for percentage change in coronary blood flow in anesthetized Dogs; format: functional, Canis lupus familiaris, Artery
# Canis familiaris [4] = assay: Compound was tested for its hemodynamic effect for percentage change in heart rate in anesthetized Dogs; format: functional, Canis lupus familiaris
# Canis familiaris [5] = assay: Compound was tested for its hemodynamic effect for percentage change in mean blood pressure in anesthetized Dogs; format: functional, Canis lupus familiaris
# Canis familiaris [6] = assay: Compound was tested for its hemodynamic effect for percentage change in vertebral blood flow in anesthetized dogs; format: functional, Canis lupus familiaris
compound,measurement,setting,value
Cl.NNS(=O)(=O)c1cccc2cnccc12,Vertebral blood flow,Canis familiaris [1],>100
CN(CCNS(=O)(=O)c1cccc2cnccc12)C1CCCCC1,Femoral blood flow,Canis familiaris [2],0.83
same,Vertebral blood flow,Canis familiaris [1],1.7
O=[N+]([O-])c1ccc(CNCCNS(=O)(=O)c2cccc3cnccc23)cc1,Femoral blood flow,Canis familiaris [2],2.5
same,Vertebral blood flow,Canis familiaris [1],1.5
CCCCCCCCN(CCN)S(=O)(=O)c1cccc2cnccc12,Vertebral blood flow,Canis familiaris [1],0.92
CCCCCCN(CCN)S(=O)(=O)c1cccc2cnccc12,Change,Canis familiaris [3],53.6%
same,Change,Canis familiaris [4],2.8%
same,Change,Canis familiaris [5],-11.4%
same,Change,Canis familiaris [6],91.4%
same,Vertebral blood flow,Canis familiaris [1],0.12
CCCCCCN(CCCCCC)CCNS(=O)(=O)c1cccc2cnccc12,Femoral blood flow,Canis familiaris [2],1.2
same,Vertebral blood flow,Canis familiaris [1],0.48
O=S(=O)(NCCNC1CCCCC1)c1cccc2cnccc12,Vertebral blood flow,Canis familiaris [1],1.4
CN(C)CCNS(=O)(=O)c1cccc2cnccc12,Vertebral blood flow,Canis familiaris [1],1.4
CCCCCNCCNS(=O)(=O)c1cccc2cnccc12,Femoral blood flow,Canis familiaris [2],1
same,Vertebral blood flow,Canis familiaris [1],2.4
NCCCNS(=O)(=O)c1cccc2cnccc12,Femoral blood flow,Canis familiaris [2],3.6
same,Vertebral blood flow,Canis familiaris [1],5.1
CCCCCCCCCCNCCNS(=O)(=O)c1cccc2cnccc12,Vertebral blood flow,Canis familiaris [1],0.49
NCCCCCCNS(=O)(=O)c1cccc2cnccc12,Femoral blood flow,Canis familiaris [2],2.4
same,Vertebral blood flow,Canis familiaris [1],1.4
CN(CCN)S(=O)(=O)c1cccc2cnccc12,Vertebral blood flow,Canis familiaris [1],1.6
O=S(=O)(NCCNCc1ccccc1Cl)c1cccc2cnccc12,Femoral blood flow,Canis familiaris [2],2.6
same,Vertebral blood flow,Canis familiaris [1],1.5
O=S(=O)(NCCNCc1ccccc1)c1cccc2cnccc12,Vertebral blood flow,Canis familiaris [1],0.57
CCCCCCNCCNS(=O)(=O)c1cccc2cnccc12,Change,Canis familiaris [3],45.7%
same,Change,Canis familiaris [4],3.9%
same,Change,Canis familiaris [5],-16.8%
same,Change,Canis familiaris [6],93.7%
same,Femoral blood flow,Canis familiaris [2],0.23
same,Vertebral blood flow,Canis familiaris [1],0.17
O=S(=O)(c1cccc2cnccc12)N(CCNCc1ccccc1)Cc1ccccc1,Vertebral blood flow,Canis familiaris [1],1.8
CNCCNS(=O)(=O)c1cccc2cnccc12,Femoral blood flow,Canis familiaris [2],1.7
same,Vertebral blood flow,Canis familiaris [1],3.7
CCNCCN(CC)S(=O)(=O)c1cccc2cnccc12,Femoral blood flow,Canis familiaris [2],1.1
same,Vertebral blood flow,Canis familiaris [1],0.78
COc1ccc(CNCCNS(=O)(=O)c2cccc3cnccc23)cc1OC,Femoral blood flow,Canis familiaris [2],3.7
same,Vertebral blood flow,Canis familiaris [1],4.3
CC(C)N(CCN)S(=O)(=O)c1cccc2cnccc12,Vertebral blood flow,Canis familiaris [1],3.3
O=S(=O)(NCCNCc1cccc(Cl)c1)c1cccc2cnccc12,Femoral blood flow,Canis familiaris [2],0.83
same,Vertebral blood flow,Canis familiaris [1],0.26
CC(C)N(CCNS(=O)(=O)c1cccc2cnccc12)C(C)C,Vertebral blood flow,Canis familiaris [1],2.7
CCCCNCCNS(=O)(=O)c1cccc2cnccc12,Femoral blood flow,Canis familiaris [2],1.3
same,Vertebral blood flow,Canis familiaris [1],4.6
COc1ccc(CNCCNS(=O)(=O)c2cccc3cnccc23)cc1,Femoral blood flow,Canis familiaris [2],0.43
same,Vertebral blood flow,Canis familiaris [1],0.38
CCCCCCCCNCCNS(=O)(=O)c1cccc2cnccc12,Vertebral blood flow,Canis familiaris [1],0.53
CCCNCCNS(=O)(=O)c1cccc2cnccc12,Femoral blood flow,Canis familiaris [2],1.6
same,Vertebral blood flow,Canis familiaris [1],2.7
O=S(=O)(NCCNCCc1ccccc1)c1cccc2cnccc12,Femoral blood flow,Canis familiaris [2],0.32
same,Vertebral blood flow,Canis familiaris [1],0.31
NCCNS(=O)(=O)c1cccc2cnccc12,Femoral blood flow,Canis familiaris [2],2
same,Vertebral blood flow,Canis familiaris [1],1.8
NCCCCNS(=O)(=O)c1cccc2cnccc12,Femoral blood flow,Canis familiaris [2],2.7
same,Vertebral blood flow,Canis familiaris [1],4.2
CCCCN(CCN)S(=O)(=O)c1cccc2cnccc12,Vertebral blood flow,Canis familiaris [1],0.27
NCCN(Cc1ccccc1)S(=O)(=O)c1cccc2cnccc12,Vertebral blood flow,Canis familiaris [1],1.92
CCCCCCN(CCC)CCNS(=O)(=O)c1cccc2cnccc12,Femoral blood flow,Canis familiaris [2],1.9
same,Vertebral blood flow,Canis familiaris [1],1.7
CNCCN(C)S(=O)(=O)c1cccc2cnccc12,Femoral blood flow,Canis familiaris [2],1.5
same,Vertebral blood flow,Canis familiaris [1],1.3
CCNCCNS(=O)(=O)c1cccc2cnccc12,Femoral blood flow,Canis familiaris [2],2.7
same,Vertebral blood flow,Canis familiaris [1],4.2
CCN(CCN)S(=O)(=O)c1cccc2cnccc12,Vertebral blood flow,Canis familiaris [1],1.3
O=S(=O)(NCCNCc1ccc(Cl)cc1)c1cccc2cnccc12,Femoral blood flow,Canis familiaris [2],1
same,Vertebral blood flow,Canis familiaris [1],0.25
COc1ccc([C@@H]2Sc3ccccc3N(CCN(C)C)C(=O)[C@@H]2OC(C)=O)cc1 [DILTIAZEM],Change,Canis familiaris [3],91.3%
same,Change,Canis familiaris [4],-8%
same,Change,Canis familiaris [5],-28.9%
same,Change,Canis familiaris [6],180%
same,Femoral blood flow,Canis familiaris [2],0.21
same,Vertebral blood flow,Canis familiaris [1],0.15
